Results published in patent publication US20050256103A1, “Indole derivative having piperidine ring” (Eisai Co., Ltd., priority 2004, published 2005).
pIC50: −log10 of the molar value. Read-outs that look alike come from different tables or passages of the source.

Experiments:
serotonin 1A receptor = target: T1, serotonin 1A receptor (Mus musculus, UniProt Q64264); assay: Antagonistic effect on serotonin 1A receptor agonist (8-OH-DPAT)-induced hypothermia in mouse; type: in vivo; conditions: CD-1 (ICR) male mice; inhibition of hypothermia by 8-OH-DPAT 0.5 mg/kg sc; test substance 15 minutes before agonist
T1 construct: into the rectum of CD-1 (ICR) male mice (25-45 g); from tissue; host or cells: living CD-1 (ICR) male mice (in vivo)
T1 sequence (Q64264 1-421): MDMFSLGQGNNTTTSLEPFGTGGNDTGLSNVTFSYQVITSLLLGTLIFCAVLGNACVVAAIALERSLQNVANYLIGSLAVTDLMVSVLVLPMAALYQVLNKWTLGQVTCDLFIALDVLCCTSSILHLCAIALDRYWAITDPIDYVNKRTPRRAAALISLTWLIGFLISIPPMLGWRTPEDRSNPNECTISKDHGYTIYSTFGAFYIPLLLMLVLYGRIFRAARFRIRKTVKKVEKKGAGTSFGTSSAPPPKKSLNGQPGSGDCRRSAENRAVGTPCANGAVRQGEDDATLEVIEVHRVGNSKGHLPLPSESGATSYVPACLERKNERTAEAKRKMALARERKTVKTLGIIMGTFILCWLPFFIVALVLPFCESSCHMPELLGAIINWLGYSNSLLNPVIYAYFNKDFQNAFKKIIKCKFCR
Experimental: (1) A thermistor probe was inserted at a depth of approximately 2 cm into the rectum of CD-1 (ICR) male mice (25-45 g), so as to measure the body temperature thereof. Body temperature is decreased by subcutaneous administration of serotonin 1A receptor agonist (8-hydroxy-dipropylaminotetralin (8-OH-DPAT) 0;5 mg/kg. Since a serotonin 1A antagonist inhibits such action, the antagonistic effect of a test substance to a serotonin 1A receptor was evaluated using the inhibitory effect of the hypothermia as an index. The test results are shown in Table 2 indicated below. A test substance was administered 15 minutes before the administration of the serotonin 1A agonist. A serotonin 1A partial agonist alone decreases the body temperature, depending on the degree of the agonistic action thereof. In addition, it has a weak antagonistic effect on 8-OH-DPAT-induced hypothermia.

5-HT1A receptor = target: T2, 5-HT1A receptor (Sus scrofa, UniProt A0A4X1UTF5); assay: Affinity for serotonin 1A receptor: inhibition of [3H]MPPF binding in swine hippocampal membrane fraction; conditions: for pIC50: swine hippocampal membrane, 37°C 30 min; for L/H ratio: low affinity IC50 divided by high affinity IC50, 1 or smaller = no intrinsic activity, 2 or greater = intrinsic activity
T2 construct: Swine hippocampus was homogenized in a 50 mM Tris-Hcl buffer; from tissue; host or cells: swine hippocampus, membrane fraction
T2 sequence (A0A4X1UTF5 1-422): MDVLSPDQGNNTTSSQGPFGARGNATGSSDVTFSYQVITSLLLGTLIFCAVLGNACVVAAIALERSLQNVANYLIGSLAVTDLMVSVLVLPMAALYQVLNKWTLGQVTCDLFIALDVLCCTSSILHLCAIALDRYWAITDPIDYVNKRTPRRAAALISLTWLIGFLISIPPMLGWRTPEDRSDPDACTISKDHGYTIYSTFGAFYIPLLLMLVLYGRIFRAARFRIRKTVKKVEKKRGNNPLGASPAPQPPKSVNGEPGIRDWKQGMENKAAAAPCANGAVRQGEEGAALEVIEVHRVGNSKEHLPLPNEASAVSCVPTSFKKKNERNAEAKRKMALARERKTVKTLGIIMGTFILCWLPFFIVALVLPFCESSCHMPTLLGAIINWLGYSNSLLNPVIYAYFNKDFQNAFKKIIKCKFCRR
Source text: (1) The affinity of a test substance for a 5-HT1A receptor was examined by an inhibition experiment, in which the inhibitory effect of the test substance against the binding of [^3H]-4-(2′-methoxy)phenyl-1-(2′-(N-2″-pyridinyl)-p-fluorobenzamido)ethyl-piperazine (MPPF) that selectively binds to the 5-HT1A receptor in a swine hippocampal membrane fraction was examined. The 5-HT1A receptor that is a G-protein binding receptor becomes a G-protein binding state with addition of MgCl2. In contrast, it becomes a G-protein non-binding state with addition of guanylylimido diphosphate (Gpp(NH)p). […] Thus, both the affinity of a test substance to the receptor that was in a state of not binding to the G-protein and the affinity of the test substance to the receptor that was in a state of binding to the G-protein were obtained. Then, the obtained values were compared to each other, so as to estimate the level of the intrinsic activity of the test substance. Theoretically, when the value (L/H) obtained by dividing the affinity of a test substance to the receptor that is in a low affinity state (IC50 value) by the affinity of a test substance to the receptor that is in a high affinity state (IC50 value) is 1 or less, the intrinsic activity thereof is zero. The greater this value, the higher the intrinsic activity that can be obtained.
Swine hippocampus was homogenized in a 50 mM Tris-Hcl buffer (pH 7.4; hereinafter referred to as buffer A) that had been cooled on ice. The suspension was centrifuged at 40,000×g for 15 minutes. The obtained pellet was suspended in buffer solution A, and the thus obtained solution was then centrifuged at 40,000×g for 15 minutes. The same operation was repeated 2 or 3 times. The finally obtained pellet was suspended in a buffer solution A in an amount 10 times the wet weight of the swine hippocampus, so as to obtain a membrane fraction. The obtained membrane fraction was stored at −80° C. until use.
A mixture (0.5 ml) used for incubation comprised an appropriate amount of the membrane fraction, a test substance with a desired concentration, MgCl2 (final concentration: 10 mM) or Gpp(NH)p (final concentration: 1 mM), [^3H]MPPF (final concentration: 0.5 nM), dimethyl sulfoxide (final concentration: 1% (v/v)), and a 50 mM Tris-Hcl buffer (pH 7.4). The reaction was initiated with addition of the membrane fraction, and the mixture was incubated at 37° C. for 30 minutes. After completion of the incubation, the mixture was subjected to vacuum filtration with a glass filter, using Cell Harvester. The filter was washed with buffer solution A that had been cooled on ice. Thereafter, radioactivity binding to the receptor was measured with a liquid scintillation counter. Non-specific binding was defined as binding detected in the presence of 10 μM WAY-100,635.

[1] = [3H]MPPF 0.5 nM, receptor in high affinity (G-protein binding, MgCl2 10 mM) state, read-out: High affinity IC50
[2] = [3H]MPPF 0.5 nM, receptor in low affinity (G-protein non-binding, Gpp(NH)p 1 mM) state, read-out: Low affinity IC50

COc1ccc2c(C)noc2c1CCN1CCC(n2ccc3ccc(C(N)=O)cc32)CC1 [Compound 1, 1-{1-[2-(6-methoxy-3-methylbenz[d]isoxazol-7-yl)ethyl]piperidin-4-yl}-1H-indole-6-carboxamide]
ED50 (serotonin 1A receptor): 0.3 mg/kg, sc | pIC50 (5-HT1A receptor; High affinity IC50, [3H]MPPF 0.5 nM, receptor in high affinity (G-protein binding, MgCl2 10 mM) state): 9.80 | pIC50 (5-HT1A receptor; Low affinity IC50, [3H]MPPF 0.5 nM, receptor in low affinity (G-protein non-binding, Gpp(NH)p 1 mM) state): 9.59 | L/H ratio (5-HT1A receptor): 1.6

COc1cc2onc(C)c2cc1CCN1CCC(n2ccc3ccc(C(N)=O)cc32)CC1 [Compound 2, 1-{1-[2-(6-methoxy-3-methylbenzo[d]isoxazol-5-yl)ethyl]piperidin-4-yl}-1H-indole-6-carboxamide]
ED50 (serotonin 1A receptor): 0.4 mg/kg, sc | pIC50 (5-HT1A receptor; [1]): 9.57 | pIC50 (5-HT1A receptor; [2]): 9.46 | L/H ratio (5-HT1A receptor): 1.3

CON=C1CCc2c(CCN3CCC(n4ccc5ccc(C(N)=O)cc54)CC3)c(OC)cc(OC)c21 [Compound 11, 1-{1-[2-(5,7-dimethoxy-1-methoxyiminoindan-4-yl)ethyl]piperidin-4-yl}-1H-indole-6-carboxamide]
pIC50 (5-HT1A receptor; [1]): 9.66 | pIC50 (5-HT1A receptor; [2]): 10.00 | L/H ratio (5-HT1A receptor): 0.4

COc1cc2c(cc1CCN1CCC(n3ccc4ccc(C(N)=O)cc43)CC1)C(=O)CCCO2 [Compound 12, 1-{1-[2-(8-methoxy-5-oxo-2,3,4,5-tetrahydrobenzo[b]oxepin-7-yl)ethyl]piperidin-4-yl}-1H-indole-6-carboxamide]
pIC50 (5-HT1A receptor; [1]): 9.77 | pIC50 (5-HT1A receptor; [2]): 9.80 | L/H ratio (5-HT1A receptor): 0.9

CON=C1CCCOc2cc(OC)c(CCN3CCC(n4ccc5ccc(C(N)=O)cc54)CC3)cc21 [Compound 13, 1-{1-[2-(8-methoxy-5-methoxyimino-2,3,4,5-tetrahydrobenzo[b]oxepin-7-yl)ethyl]piperidin-4-yl}-1H-indole-6-carboxamide]
pIC50 (5-HT1A receptor; [1]): 9.49 | pIC50 (5-HT1A receptor; [2]): 9.66 | L/H ratio (5-HT1A receptor): 0.7

COc1ccc2c(c1CCN1CCC(n3ccc4ccc(C(N)=O)cc43)CC1)CC(C)(C)C2=O [Compound 14, 1-{1-[2-(5-methoxy-2,2-dimethyl-1-oxoindan-4-yl)ethyl]piperidin-4-yl}-1H-indole-6-carboxamide]
pIC50 (5-HT1A receptor; [1]): 9.34 | pIC50 (5-HT1A receptor; [2]): 9.47 | L/H ratio (5-HT1A receptor): 0.7

CNC(=O)c1ccc2ccn(C3CCN(CCc4c(OC)ccc5nc(C)oc45)CC3)c2c1 [Compound 15]
pIC50 (5-HT1A receptor; [1]): 9.14 | pIC50 (5-HT1A receptor; [2]): 9.21 | L/H ratio (5-HT1A receptor): 0.8

CNC(=O)c1ccc2ccn(C3CCN(CCc4cc5nc(C)oc5cc4OC)CC3)c2c1 [Compound 16, 1-{1-[2-(6-methoxy-2-methylbenzoxazol-5-yl)ethyl]piperidin-4-yl}-N-methyl-1H-indole-6-carboxamide]
pIC50 (5-HT1A receptor; [1]): 9.74 | pIC50 (5-HT1A receptor; [2]): 9.77 | L/H ratio (5-HT1A receptor): 0.9

CON=C1CCCc2c1ccc(OC)c2CCN1CCC(n2ccc3ccc(C(N)=O)cc32)CC1 [Compound 19, 1-{1-[2-(2-methoxy-5-methoxyimino-5,6,7,8-tetrahydronaphthalen-1-yl)ethyl]piperidin-4-yl}-1H-indole-6-carboxamide]
pIC50 (5-HT1A receptor; [1]): 8.96 | pIC50 (5-HT1A receptor; [2]): 9.16 | L/H ratio (5-HT1A receptor): 0.6

COc1ccc2cccnc2c1CCN1CCC(n2ccc3ccc(C(N)=O)cc32)CC1 [Compound 29, 1-{1-[2-(7-methoxyquinolin-8-yl)ethyl]piperidin-4-yl}-1H-indole-6-carboxamide]
pIC50 (5-HT1A receptor; [1]): 9.47 | pIC50 (5-HT1A receptor; [2]): 9.52 | L/H ratio (5-HT1A receptor): 0.9

COc1ccc2c(c1CCN1CCC(n3ccc4ccc(C(N)=O)cc43)CC1)OCC(C)(C)C2=O [Compound 37, 1-{1-[2-(7-methoxy-3,3-dimethyl-4-oxochroman-8-yl)ethyl]piperidin-4-yl}-1H-indole-6-carboxamide]
pIC50 (5-HT1A receptor; [1]): 9.26 | pIC50 (5-HT1A receptor; [2]): 9.41 | L/H ratio (5-HT1A receptor): 0.7

COc1cc2c(cc1CCN1CCC(n3ccc4ccc(C(N)=O)cc43)CC1)N(C)C(=O)OC2 [Compound 39, 1-{1-[2-(6-methoxy-methyl-oxo-1,4-dihydro-2H-benz[d][1,3]oxazin-7-yl)ethyl]piperidin-4-yl}-1H-indole-6-carboxamide]
pIC50 (5-HT1A receptor; [1]): 9.89 | pIC50 (5-HT1A receptor; [2]): 10.05

COCC1(C)CC(=O)c2ccc(OC)c(CCN3CCC(n4ccc5ccc(C(N)=O)cc54)CC3)c2O1 (stereo not shown) [Compound 40, 1-{1-[2-(7-methoxy-2-methoxymethyl-2-methyl-4-oxochroman-8-yl)ethyl]piperidin-4-yl}-1-H-indole-6-carboxamide]
pIC50 (5-HT1A receptor; [1]): 9.74 | pIC50 (5-HT1A receptor; [2]): 9.77 | L/H ratio (5-HT1A receptor): 0.9

COc1ccc2c(c1CCN1CCC(n3ccc4ccc(C(N)=O)cc43)CC1)OC1(CCCC1)CC2=O [Compound 41, 1-{1-[2-(7-methoxy-4-oxo-spiro(chroman-2,1′-cyclopentan)-8-yl)ethyl]piperidin-4-yl}-1H-indole-6-carboxamide]
pIC50 (5-HT1A receptor; [1]): 9.70 | pIC50 (5-HT1A receptor; [2]): 9.85 | L/H ratio (5-HT1A receptor): 0.7

COc1ccc2c(c1CCN1CCC(n3ccc4ccc(C(N)=O)cc43)CC1)OC1(CCOCC1)CC2=O [Compound 43, 1-{1-[2-(7-methoxy-4-oxo-spiro(chroman-2,4′-oxan)-8-yl)ethyl]piperidin-4-yl}-1H-indole-6-carboxamide]
pIC50 (5-HT1A receptor; [1]): 9.66 | pIC50 (5-HT1A receptor; [2]): 9.82 | L/H ratio (5-HT1A receptor): 0.7

COc1cc2c(cc1CCN1CCC(n3ccc4ccc(C(N)=O)cc43)CC1)C(O)CC2 (stereo not drawn) [Compound 50, 1-{l-[2-(3-hydroxy-6-methoxyindan-5-yl)ethyl]piperidin-4-yl}-1H-indole-6-carboxamide]
pIC50 (5-HT1A receptor; [1]): 9.68 | pIC50 (5-HT1A receptor; [2]): 9.68 | L/H ratio (5-HT1A receptor): 1

COc1cc2c(cc1CCN1CCC(n3ccc4ccc(C(N)=O)cc43)CC1)NC(=O)CC2 [Compound 56, 1-{1-[2-(6-methoxy-2-oxo-1,2,3,4-tetrahydroquinolin-7-yl)ethyl]piperidin-4-yl}-1H-indole-6-carboxamide]
pIC50 (5-HT1A receptor; [1]): 10.15 | pIC50 (5-HT1A receptor; [2]): 10.40 | L/H ratio (5-HT1A receptor): 0.5
